The text below walks through data of patent US20080160553A1, “Method of preparing heart muscle cells and method of searching for remedy for heart diseases” (Takeda Pharmaceutical Company Limited, priority 2000, published 2008).

One experiment has as its system heart muscle cells. Conditions: by activating Akt; cited from earlier work.
Experiment [1] concerns heart muscle cells of rat newborns. Description: Inhibition of serum-removal-induced apoptosis of heart muscle cells, present detection method (serum re-added, about 17 h) with MTT. The class given is cell-based. The conditions noted are these: 1000 U/ml hLIF, 4 days serum-free, then 10% serum about 17 h, MTT as coloration substrate. The procedure: (§1) The heart muscle cells obtained by the method of the invention are adjusted to a cell density of 3×10^4 cells/well (96-wells plate) and cultured in serum-free medium such as Medium 199 in a CO2 incubator set at 5% CO2, 37° C. for 4 days, thus inducing apoptosis to reduce the survival rate of the heart muscle cells to 50% or less.
(§2) Serum such as FCS is added at a final concentration of 10% to the culture, which is then cultured for about 17 hours and measured for its dehydrogenase activity (reduction activity) with MTT or WST-8 as the coloration substrate, to determine the number of viable cells.
Using the heart muscle cells of rat newborns obtained by the present method of preparing heart muscle cells as described in Example 1, their apoptosis was induced by removing serum from the culture, and the inhibitory action of recombinant human leukemia inhibitory factor (hLIF, produced by Peprotech) on the apoptosis was detected by the conventional method with MTT as the coloration substrate and by the present method of detecting apoptosis with WST-8 or MTT as the coloration substrate, and the sensitivity of the two methods was compared. […]

For experiment [2] the test system is unchanged. Description: Inhibition of serum-removal-induced apoptosis of heart muscle cells, conventional MTT reduction method (no serum re-addition). The class given is cell-based. Conditions: 1000 U/ml hLIF, 4 days serum-free, MTT as coloration substrate. The text has this: (§3) Using the heart muscle cells of rat newborns obtained by the present method of preparing heart muscle cells as described in Example 1, their apoptosis was induced by removing serum from the culture, and the inhibitory action of recombinant human leukemia inhibitory factor (hLIF, produced by Peprotech) on the apoptosis was detected by the conventional method with MTT as the coloration substrate and by the present method of detecting apoptosis with WST-8 or MTT as the coloration substrate, and the sensitivity of the two methods was compared.
First, the muscle cells obtained in the method of preparing heart muscle cells according to the invention were suspended at a density of 3×10^5 cells/ml in Medium 199 containing 10% fetal calf serum, put onto a 96-wells plate in a volume of 0.1 ml/well, and then cultured for 1 day in a CO2 incubator set at 5% CO2, 37° C. […] In the conventional method, the number of viable cells in the culture was measured directly with MTT as the coloration substrate. In the method of the invention, on the other hand, fetal calf serum was added thereto at a concentration of 10%, and the cells were further cultured for about 17 hours in a CO2 incubator set at 5% CO2, 37° C., and the number of viable cells was determined by using WST-8 or MTT as the coloration substrate.
In general terms: Tetrazolium assays rely on reduction of a dye to a coloured formazan, in cell work by metabolically active cells.

Experiment [3] has the same test system. Description: Inhibition of serum-removal-induced apoptosis of heart muscle cells, present detection method (serum re-added, about 17 h) with WST-8. In kind it is cell-based. Conditions: 1000 U/ml hLIF. The procedure: as §1, §2, §3
First, the muscle cells obtained in the method of preparing heart muscle cells according to the invention were suspended at a density of 3×10^5 cells/ml in Medium 199 containing 10% fetal calf serum, put onto a 96-wells plate in a volume of 0.1 ml/well, and then cultured for 1 day in a CO2 incubator set at 5% CO2, 37° C. The plate was stirred with a micromixer (Taiyo Kagaku Kogyo Co., Ltd.) and the medium was exchanged 3 times with serum-free Medium 199, followed by adding 0 to 1000 U/ml hLIF. The culture was incubated for additional 4 days to induce apoptosis. In the conventional method, the number of viable cells in the culture was measured directly with MTT as the coloration substrate. In the method of the invention, on the other hand, fetal calf serum was added thereto at a concentration of 10%, and the cells were further cultured for about 17 hours in a CO2 incubator set at 5% CO2, 37° C., and the number of viable cells was determined by using WST-8 or MTT as the coloration substrate. […]
First, the heart muscle cells obtained in the method described in Example 1 were suspended at a density of 3×10^5 cells/ml in Medium 199 containing 10% fetal bovine serum, and put in a volume of 0.1 ml/well onto each well of 2nd to 11th rows on each of three 96-wells plates. […] The cells were cultured for 4 days to induce apoptosis, and fetal calf serum was added at a concentration of 10%, and the cells were cultured for additional 17 hours in a CO2 incubator set at 5% CO2, 37° C., and then the number of viable cells was counted with WST-8 as the coloration substrate.

Bounds are passed on as bounds.

“hIGF-1: recombinant human IGF-1 (hIGF-1, produced by Peprotech)”: in the experiment on heart muscle cells, the “effect on apoptosis of heart muscle cells” value is “inhibit apoptosis of heart muscle cells”.

Consider “hLIF: recombinant human leukemia inhibitory factor (hLIF, produced by Peprotech)”, for which the “increase in absorbance relative to control group” value in experiment [1] was roughly 0.1. For the same substance, in experiment [2], the “increase in the average absorbance as compared with the control group” value is on record as no more than 0.03. For the same substance, the “increase in average absorbance relative to control group” value in experiment [3] (4 days serum-free, then 10% serum about 17 h, WST-8 as coloration substrate) is no less than 0.3. Moreover, the “average absorbance (number of viable cells)” value in experiment [3] (plate 1, WST-8, control 0.22±0.039) is listed as 0.54±0.055; in experiment [3] (plate 2, WST-8, control 0.15±0.028), 0.45±0.035; in experiment [3] (plate 3, WST-8, control 0.13±0.020) it was 0.43±0.059.
